Where two headings read alike, the source gives them in different places.
Tests used:
[1] = system: eIF2.GTP.Met-tRNAi ternary complex; experiment: Ternary complex assay: dual luciferase F-luc/R-luc ratio in KLN-tTA/pBISA-DL(ATF-4) cells (HTS screen, 96-well hit confirmation, dose response); assay type: cell-based, mouse; conditions: for Ternary Complex Activity: Maximum effect (Emax, fold over control) / Cmax / fold induction at 3 µM / fold induction at 10 µM: cell line not stated; for Cmax: read-out: Ternary Complex Activity: Maximum effective dose Cmax; for fold induction at 3 µM / fold induction at 10 µM: Mus musculus; for Activity 2.5 uM: compound at 2.5 uM; for Activity 2.5 uM / Activity 10 uM: confirmed hits (Table 5); for Activity 10 uM: compound at 10 uM; for Effect on firefly/renilla luciferase ratio: KLN-tTA/pBISA-DL(ATF-4) cells
Description: For assay development, a bi-directional plasmid was designed in which a common promoter/enhancer complex drives the transcription of firefly luciferase (F-luc) ORF fused to the 5′ untranslated region (UTR) of ATF-4, and of the renilla luciferase (R-luc) ORF fused to a 90-nucleotide 5′ UTR derived from the plasmid (FIG. 6A). Because the tetracycline-regulated transactivator ((tTA), required for driving transcription from this vector) is not normally expressed in the mammalian cells, stable KLN cancer cells were constructed that expressed tTA (KLN-tTA).
The KLN-tTA colonies that drove expression of reporter genes from pBISA-DL plasmid were selected by transient transfection and dual luciferase assay. One of these KLN-tTA cell lines was transfected with the pBISA-DL^(ATF-4) expression vector, stable colonies were selected by dual luciferase assay and expanded. To determine if reduced availability of the eIF2.GTP.Met-tRNAi ternary complex increased the translation of firefly luciferase and decreased translation of renilla luciferase, selected KLN-tTA/pBISA-DL^(ATF-4) colonies were treated with thapsigargin (TG) or tunicamycin (TU), two agents known to cause phosphorylation of eIF2α.
This assay was then adapted for high throughput screening in 96 and 384 well plates. This was done by evaluating the cell density, length of exposure to compounds, DMSO tolerance and optimum firefly and renilla substrate. We then challenged these cells with thapsigargin or DMSO. […] Cell-based assays usually have higher variation than homogeneous in vitro assays due to position effect in the plate, and other variables associated with handling of cells and the plates.
Screening was conducted in 384 well white opaque plates (Nalge Nunc), 100 μl volume RPMI+10% fetal bovine serum. Cells were plated at the sub-confluent density of 10,000 cells/well, and allowed to attach for a period of 16-18 hours at 37° C., 5% CO2. Compounds were added as 1 μl of a 1 mM DMSO stock solution for a final screening concentration of […] using low-volume tips for transfer (Molecular Bioproducts). Cells were then incubated in the presence of compound for an additional sixteen hours, again at 37° C., 5% CO2. Following incubation 70 μl of the culture medium was removed from each well to allow for reagent addition and plates were allowed to equilibrate to room temperature for thirty minutes. Firefly luciferase reporter activity was then read by the addition of thirty microliters of Dual Glo Luciferase reagent (Promega), followed by one hour incubation at room temperature to allow for adequate signal buildup. Luminescence counting was conducted on a Microbeta Trilux using a 1 second read time. Renilla luciferase reporter activity was measured following addition of 30 μl Stop and Glo Luciferase reagent (Promega) and incubation identical to the one carried out for the firefly luciferase one.
Compound scores were interpreted as firefly luciferase activity divided by renilla luciferase activity, normalized to the plate's DMSO control. […] All data analysis was conducted using the BioAssay HTS software package (CambridgeSoft).
102,709 compounds in the NCI Open Chemical Repository were then screened using this HTS assay. […] Initial hits were confirmed by repeating the same dual luciferase assay in 96 well plates. Briefly, 20,000 cells/well were plated in triplicate for each concentration (10, 5 and 2.5 μM) of the compounds.

[2] = system: CRL-2351 human breast cancer cells; experiment: Cell proliferation SRB assay, CRL-2351; assay type: cell-based
Procedure: (§1) Reduced availability of the ternary complex causes inhibition of translation initiation and thereby of cell proliferation. […] The effects of N,N′-diarylureas on the proliferation KLN mouse squamous cell carcinoma, CRL-2351 human breast, CRL-2813 human melanoma, A549 human lung and PC-3 human prostate cancer cell lines were tested.
(§2) Cell Growth Assay: Cell Growth was Measured by the SRB Assay.

[3] = system: eIF2.GTP.Met-tRNAi ternary complex; experiment: ATF-4 assay (firefly/renilla luciferase ratio) in CRL-2351 cell line; assay type: cell-based, human
Description: For example, reducing amount of the ternary complex increases translation of ATF-4, which results in elevated expression of CHOP mRNA and protein. Therefore, expression of endogenous CHOP mRNA and CHOP protein in KLN-tTA/pBISA-DL^(ATF-4) cells were utilized as secondary assays to validate N,N′-diarylurea compounds as modifiers of the eIF2.GTP.Met-tRNAi ternary complex. […] To rule out the possibility that the activity of N,N′-diarylurea compounds was confined to a single cell type, the effects of these compounds on the ternary complex assay and the expression of CHOP mRNA was assayed in CRL-2351, PC-3, CRL-2813 human breast, prostate, and melanoma cancer cell lines respectively. For the reporter gene assay, the three human cell lines were co-transfected with tTA expression vector and the pBISA-DL^(ATF-4) dual luciferase expression vector shown in FIG. 6. […] The expression of CHOP mRNA was assayed by real time PCR in the same cell lines treated with 5 or 20 μM of each compound.
Stable and transient transfection: Cells were seeded at the density of 10^5 in 60-mm (stable transfection) or 10^4 cells per well of 96-well plate (transient transfection) plates and transfected one day later using the Qiagen Transfectamine transfection kit. For selection of stable cell lines, transfected cells were transferred to 100-mm plates and selected with appropriate antibiotics.
Dual luciferase assay: Cells or minced tumors expressing firefly and renilla luciferases were lysed and the extracts assayed with a glow type dual luciferase assay kit, per manufacturer's instruction (Promega Inc., Madison, Wis.).

[4] = system: KLN mouse squamous cell carcinoma cells; experiment: Cell proliferation SRB assay, KLN; assay type: cell-based; conditions: KLN cells, read-out: IC50 (μM) by SRB assay, KLN
Procedure: as §1, §2

[5] = CRL-2351 human breast cancer cells, read-out: Growth Inhibition IC50 (μm)

Row | Compound | IC50 [2, 5] [µM] | fold induction at 3 µM [1] | fold induction at 10 µM [1] | other results
1 | Cc1ccc(N(C)C(=O)Nc2cc(C(F)(F)F)cc(C(F)(F)F)c2)cc1O [BLS13] | – | – | – | Ternary Complex Activity: Maximum effect (Emax, fold over control) [1]: 8.5 fold over control; Cmax [1]: 80 µM
2 | COc1cc(N(C)C(=O)Nc2cc(C(F)(F)F)cc(C(F)(F)F)c2)ccc1C [BLS14] | – | – | – | Ternary Complex Activity: Maximum effect (Emax, fold over control) [1]: Inactive
3 | CN(C(=O)Nc1cc(C(F)(F)F)cc(C(F)(F)F)c1)c1cc(C(F)(F)F)cc(C(F)(F)F)c1 [BLS17] | – | – | – | Ternary Complex Activity: Maximum effect (Emax, fold over control) [1]: 13 fold over control; Cmax [1]: 10 µM
4 | Cc1ccc(NC(=O)Nc2cc(C(F)(F)F)cc(C(F)(F)F)c2)cc1OCCN(C)C [Compound 13, 3-[3,5-bis(trifluoromethyl)phenyl]-1-{3-[2-(dimethylamino)ethoxy]-4-methylphenyl}urea] | – | – | – | IC50 ([2]; Homo sapiens, 2351 cells, read-out: IC50 (μM) by SRB assay, 2351): 2.9 µM; maximal fold induction ([3]; Homo sapiens, read-out: ATF-4 Amax: maximal activity, ratio of firefly over renilla luciferase expression): 12.5; EC (activity threshold of 5) ([3]; Homo sapiens, read-out: ATF-4 C[5] (μM): concentration corresponding to an activity threshold of 5): 5 µM; Cmax ([3]; read-out: ATF-4 Cmax (μM): concentration corresponding to the maximal activity): 10 µM; IC50 [4]: 12.4 µM
5 | FC(F)(F)c1cc(NC(=S)Nc2ccc(Cl)c(C(F)(F)F)c2)ccc1Cl [Compound 1778] | 0.4 | 5 | 8 | –
6 | Clc1ccc(Nc2nncn2-c2ccc(Cl)c(Cl)c2)cc1Cl [Compound 1842] | – | 1 | 1 | –
7 | N#Cc1ncc(Cl)cc1[N+](=O)[O-] [Compound 141226] | – | – | – | Activity 2.5 uM [1]: 1.02; Activity 10 uM [1]: 3.8
8 | CC(C)(C)C[CH2][Hg][Cl] [Compound 146249] | – | – | – | Activity 2.5 uM [1]: 2.57; Activity 10 uM [1]: 3.25
9 | C[C@H](N)C(=O)NCC(=O)N[C@H]1CSSC[C@@H](C(=O)O)NC(=O)[C@H](CO)NC(=O)[C@H]([C@@H](C)O)NC(=O)[C@H](Cc2ccccc2)NC(=O)[C@H]([C@@H](C)O)NC(=O)[C@H](CCCCN)NC(=O)[C@H](Cc2c[nH]c3ccccc23)NC(=O)[C@H](Cc2ccccc2)NC(=O)[C@H](Cc2ccccc2)NC(=O)[C@H](CC(N)=O)NC(=O)[C@H](CCCCN)NC1=O [Somatostatin] | – | – | – | Relative F-luc/R-luc Ratio (+/− SEM) ([1]; agent at 20 μM): 0.9 + 0.2
10 | COc1cc([C@@H]2c3cc4c(cc3[C@@H](O[C@@H]3O[C@@H]5CO[C@@H](C)O[C@H]5[C@H](O)[C@H]3O)[C@H]3COC(=O)[C@H]23)OCO4)cc(OC)c1O [etoposite, reference compound] | – | – | – | Effect on firefly/renilla luciferase ratio [1]: no effect
11 | CO[C@@]12[C@H](COC(N)=O)C3=C(C(=O)C(C)=C(N)C3=O)N1C[C@@H]1N[C@@H]12 [mitomycin, reference compound] | – | – | – | Effect on firefly/renilla luciferase ratio [1]: no effect
12 | C/C=C(/C)C(=O)O[C@H]1C(C)=C2[C@H]([C@@H]1OC(=O)CCCCCCC)[C@@](C)(OC(C)=O)C[C@H](OC(=O)CCC)[C@@]1(O)[C@H]2OC(=O)[C@@]1(C)O [thapsigargin, reference compound] | – | – | – | Effect on firefly/renilla luciferase ratio [1]: increase in the ratio
13 | tunicamycin [reference compound] | – | – | – | Effect on firefly/renilla luciferase ratio [1]: increase in the ratio

The next lines start with results.

Row | IC50 [2, 5] [µM] | Compound | fold induction at 3 µM [1] | fold induction at 10 µM [1] | other results
14 | 1.2 | FC(F)(F)c1ccc(NC(=S)Nc2ccc(Cl)c(Cl)c2)cc1 [Compound 1797] | 1 | 1 | –
15 | 0.4 | FC(F)(F)c1cc(NC(=S)Nc2ccc(Cl)c(Cl)c2)cc(C(F)(F)F)c1 [Compound 1798] | 3 | 5 | –
16 | 0.7 | FC(F)(F)c1cc(NC(=S)Nc2ccc(Cl)c(Cl)c2)ccc1Cl [Compound 1799] | 4 | 4 | –
17 | 0.5 | FC(F)(F)c1cc(NC(=S)Nc2ccc(Cl)cc2)cc(C(F)(F)F)c1 [Compound 1800] | 3 | 4 | –
18 | 0.8 | FC(F)(F)c1cc(NC(=S)Nc2ccc(Cl)cc2)ccc1Cl [Compound 1801] | 3 | 3 | –
19 | 3.5 | Cc1ccc(NC(=S)Nc2ccc(Cl)c(C(F)(F)F)c2)cc1O [Compound 1802] | 1.5 | 7 | –
20 | 1.7 | Cc1ccc(NC(=S)Nc2cc(C(F)(F)F)cc(C(F)(F)F)c2)cc1O [Compound 1803] | 1 | 12 | –
21 | 0.1 | FC(F)(F)c1cc(NC(=S)Nc2cc(C(F)(F)F)cc(C(F)(F)F)c2)cc(C(F)(F)F)c1 [Compound 1804] | 6 | 25 | –
22 | 1.6 | S=C(Nc1ccc(Cl)cc1)Nc1ccc(Cl)c(Cl)c1 [Compound 1805] | 1.4 | 8 | –
23 | 0.9 | S=C(Nc1ccc(Cl)c(Cl)c1)Nc1ccc(Cl)c(Cl)c1 [Compound 1806] | 2.5 | 3.5 | –
24 | 2 | CNC(=O)c1cc(Oc2ccc(NC(=S)Nc3ccc(Cl)c(C(F)(F)F)c3)cc2)ccn1 [Compound 1814] | 1.5 | 2 | –
25 | > 20 | COc1ccc(NC(=S)Nc2ccccc2)cc1 [Compound 1815] | 1 | 1 | –
26 | 1.5 | COc1ccc(NC(=S)Nc2cc(C(F)(F)F)cc(C(F)(F)F)c2)cc1 [Compound 1816] | 1 | 2.5 | –
27 | 1.5 | FC(F)(F)c1cc(NC(=S)Nc2ccccc2)cc(C(F)(F)F)c1 [Compound 1819] | 1 | 6 | –
28 | 1.5 | CC(C)c1ccccc1NC(=S)Nc1cc(C(F)(F)F)cc(C(F)(F)F)c1 [Compound 1820] | 1.5 | 11 | –
29 | 4 | CC(C)(C)c1ccccc1NC(=S)Nc1cc(C(F)(F)F)cc(C(F)(F)F)c1 [Compound 1821] | 1 | 1 | –
30 | 2 | FC(F)(F)c1cc(Nc2nncn2-c2cc(C(F)(F)F)cc(C(F)(F)F)c2)cc(C(F)(F)F)c1 [Compound 1836] | 1 | 1 | –
